# Columns and labels:
# Experiment in all cases: relative viability (nuclei count vs DMSO), 5 days (fraction); higher = more cells survive
# IMD-0354 + Trametinib = compound: O=C(Nc1cc(C(F)(F)F)cc(C(F)(F)F)c1)c1cc(Cl)ccc1O [IMD-0354] + CC(=O)Nc1cccc(-n2c(=O)n(C3CC3)c(=O)c3c(Nc4ccc(I)cc4F)n(C)c(=O)c(C)c32)c1 [Trametinib] (partner 0.02 µM)
# Method in brief: (§1)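 After 5 days of treatment, lung cancer cells in 1536-well plates were fixed and stained in a single step (final 0.05% Triton X-100, 1% formaldehyde, 1 ug/ml Hoechst) and their nuclei counted on 4× images. Treatment had been applied by pin tool the day after seeding as one drug alone or as a fixed anchor-drug dose with five library-drug doses (not always all listed) in √10 steps. Relative viability is the nuclei count of treated wells divided by that of vehicle wells, and values are medians of duplicate plates.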
# IMD-0354 + Decitabine = compound: O=C(Nc1cc(C(F)(F)F)cc(C(F)(F)F)c1)c1cc(Cl)ccc1O [IMD-0354] + Nc1ncn([C@H]2C[C@H](O)[C@@H](CO)O2)c(=O)n1 [Decitabine] (partner 2 µM)
# Method in brief: as §1
# IMD-0354 + Linsitinib = compound: O=C(Nc1cc(C(F)(F)F)cc(C(F)(F)F)c1)c1cc(Cl)ccc1O [IMD-0354] + C[C@]1(O)C[C@@H](c2nc(-c3ccc4ccc(-c5ccccc5)nc4c3)c3c(N)nccn32)C1 [Linsitinib] (partner 1 µM)
# Method in brief: as §1
# CX-5461 + Luminespib = compound: Cc1cnc(CNC(=O)c2c(=O)c3ccc(N4CCCN(C)CC4)nc3n3c2sc2ccccc23)cn1 [CX-5461] + CCNC(=O)c1noc(-c2cc(C(C)C)c(O)cc2O)c1-c1ccc(CN2CCOCC2)cc1 [Luminespib] (partner 0.01 µM)
# Method in brief: as §1
Cell Line,relative viability (IMD-0354 + Trametinib; first compound 0.04 µM),relative viability (IMD-0354 + Trametinib; first compound 0.1265 µM),relative viability (IMD-0354 + Trametinib; first compound 0.4 µM),relative viability (IMD-0354 + Trametinib; first compound 1.265 µM),relative viability (IMD-0354 + Trametinib; first compound 4 µM),relative viability (IMD-0354 + Decitabine; first compound 0.04 µM),relative viability (IMD-0354 + Decitabine; first compound 0.1265 µM),relative viability (IMD-0354 + Decitabine; first compound 0.4 µM),relative viability (IMD-0354 + Decitabine; first compound 1.265 µM),relative viability (IMD-0354 + Decitabine; first compound 4 µM),relative viability (IMD-0354 + Linsitinib; first compound 0.04 µM),relative viability (IMD-0354 + Linsitinib; first compound 0.1265 µM),relative viability (IMD-0354 + Linsitinib; first compound 0.4 µM),relative viability (IMD-0354 + Linsitinib; first compound 1.265 µM),relative viability (IMD-0354 + Linsitinib; first compound 4 µM),relative viability (CX-5461 + Luminespib; first compound 0.01 µM),relative viability (CX-5461 + Luminespib; first compound 0.03162 µM),relative viability (CX-5461 + Luminespib; first compound 0.1 µM),relative viability (CX-5461 + Luminespib; first compound 0.3162 µM),relative viability (CX-5461 + Luminespib; first compound 1 µM)
HCC-366,0.479,0.404,0.251,0.0603,0.0454,0.423,0.395,0.248,0.0815,0.0425,0.947,0.85,0.221,0.365,0.0421,,,,,
HCC-827,0.54,0.524,0.469,0.393,0.197,0.369,0.346,0.296,0.19,0.196,0.898,0.947,0.82,0.606,0.282,0.875,0.69,0.921,0.588,0.791
HOP-62,0.405,0.394,0.403,0.42,0.17,0.217,0.226,0.208,0.17,0.0936,1.02,0.898,0.48,0.93,0.206,0.849,0.921,0.905,0.973,0.917
IA-LM,,,,,,,,,,,0.653,0.486,0.745,0.0945,0.16,,,,,
LC-2-ad,0.968,0.877,0.54,0.348,0.189,0.876,0.698,0.5,0.322,0.199,1.02,0.844,0.369,0.108,0.123,0.981,1.04,0.869,0.925,0.424
LCLC-97TM1,0.186,0.178,0.141,0.214,0.113,0.232,0.257,0.199,0.162,0.115,,0.153,0.179,0.177,0.132,0.865,0.84,0.889,,0.703
LCLC-103H,0.703,0.703,0.521,0.602,0.315,0.727,0.737,0.635,0.546,0.293,1.11,1.07,0.844,0.821,0.425,1.03,1.08,1.01,1.14,0.975
LK-2,0.831,0.669,,0.874,0.255,0.292,0.315,,0.141,0.196,0.527,0.505,,0.863,0.19,0.173,0.214,0.199,,0.212
LOU-NH91,0.824,0.675,0.406,0.177,0.239,0.834,0.722,0.448,0.223,0.243,0.945,0.989,0.652,0.317,0.251,0.411,0.354,0.303,,0.323
